We go through one compound from US20250127787A1, “METHODS FOR TREATING PERIPHERAL NEUROPATHY” (University of Pittsburgh - Of the Commonwealth System of …, priority 2021, published 2025).

One test deals with sciatic nerve-crush rats. In words: Von Frey sensory testing after sciatic nerve crush. Type of test: in vivo, rat. The conditions noted are these: hindpaw footpad, day 2 and day 5 post injury, 8-AG 5 mg/kg/day in drinking water. The protocol: Animals. This study employed female Harlan Sprague Dawley (HSD) rats (3-4 mo; Envigo, Indianapolis, IN) and were divided into the following groups: 1) Control, 2) Sciatic nerve crush (day 0, sacrifice on day 6); 3) 8-aminoguanine (8-AG; 5 mg/kg/day in drinking water; beginning 2 weeks prior to nerve crush and continuing until sacrifice (day 6)). The dose of 8-AG is based on the work above and published experiments. Further, the water consumption/day was tracked. […] All tissues (hindpaw epidermis) were removed from isoflurane anesthetized rats and the tissue was used for various experimental approaches as described below. At the end of tissue removal, animals were sacrificed by thoracotomy.
Von Frey sensory testing. Control, sciatic nerve crush (one of the most common models of peripheral nerve injury in rodents) and 8-AG-treated sciatic nerve-crush rats were placed in an elevated chamber on a wire mesh floor and after acclimatization, calibrated von Frey microfilaments were applied to determine paw withdrawal threshold (PWT, in grams). Briefly, microfilaments (Stoelting Corp, USA) were applied with different forces perpendicularly to the plantar surface of both ipsilateral and contralateral hindpaw by increasing and decreasing stimulus intensity. […]

Test [1] relates to glutathione peroxidase (GPx). In words: Glutathione peroxidase activity in CYP-CIPN rat tissues. Type of test: in vivo. Conditions: 8-AG 5 mg/kg/day in drinking water. On the procedure:
Animals. This study employed female Harlan Sprague Dawley (HSD) rats (3-4 mo; Envigo, Indianapolis, IN) and were divided into the following groups: 1) Control, 2) Cyclophosphamide (CYP, 75 mg/kg i.p. in saline vehicle; administered on days 0, 3 and 6); 3) 8-aminoguanine (8-AG; 5 mg/kg/day in drinking water; beginning 2 weeks prior to CYP and continuing until sacrifice (day 8)). The dose of 8-AG is based on our preliminary and published experiments. […] The investigation conforms to the Guide for the Care and Use of Laboratory Animals published by the US National Institutes of Health (NIH Publication No. 85-23, revised 1996). […]
Western immunoblotting: Following the testing paradigms, rats were deeply anesthetized and tissues (e.g., epidermis, peripheral sciatic nerves, spinal cord segments (L3-L5) and dorsal root ganglia (L3-L5) were removed, and a portion of each preparation was homogenized using Lysing Matrix D in a FASTPREP® 24 instrument (MP Biomedicals, Solon, OH) in HBSS [5 mM KCl, 0.3 mM KH2PO4, 138 mM NaCl, 4 mM NaHO3, 0.3 mM Na2HCO3, 0.3 mM Na2HPO4, 5.6 mM glucose and 10 mM Hepes, pH 7.4 containing complete protease inhibitor cocktail (1 tablet/10 ml, Roche, Indianapolis, IN)] and phosphatase inhibitor cocktail (Sigma, 1:100). […] The protein concentrations of the supernatants were determined using the Pierce BCA protein assay (Thermo Scientific, Rockford, IL). […]

SMILES strings stand for the structures. “Also recorded” adds a separate entry of the source.

Consider `Nc1nc2[nH]c(N)nc2c(=O)[nH]1` [8-AG, 8-Aminoguanine], for which the “effect on injury-induced increase in sensitivity to mechanical stimuli (paw withdrawal threshold)” value in the test on sciatic nerve-crush rats is “restored to control values; also recorded: normalized”; in the test with sciatic nerve-crush rats (listed as 8-Aminoguanine) it was “normalized”. The “effect on CYP-induced increase in GPx activity” value is recorded as “significantly decreased; also recorded: restored values to that of a control state” in test [1] (epidermis) and “normalized; also recorded: prevented” in test [1] (peripheral (sciatic) nerves).
